The term melting point denotes the temperature of the solid-liquid transition.

The test system of one series is B cells in human blood. The series is described as follows: Inhibition of B cell activation in whole blood measured by CD69 expression. It is filed as cell-based. The settings on record: CD69-positive, CD20-positive cells after anti-IgM stimulation, human whole blood, 20 hours, read-out: Human Whole Blood. The gist of the method: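 Heparinised human whole blood was preincubated with compound (nine-point, three-fold dilutions) for 30 min at 37 °C. It was then stimulated with 50 μg/ml goat F(ab′)2 anti-human IgM for 20 hours. CD20/CD69 staining, red-cell lysis and flow cytometry gave percent CD69-positive cells, from which IC50 values were calculated.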

Structures can show the parent of a compound that is named as a salt.

`CN1CCN(Cc2cnc(Nc3cc(-c4cccc(-n5ncc6cc(C(C)(C)C)cc(F)c6c5=O)c4CO)nn(C)c3=O)cn2)CC1` [I-37, 6-tert-Butyl-8-fluoro-2-(2-hydroxymethyl-3-{1-methyl-5-[5-(4-methyl-piperazin-1-ylmethyl)-pyrazin-2-ylamino]-6-oxo-1,6-dihydro-pyridazin-3-yl}-phenyl)-2H-phthalazin-1-one] registered a melting point of 215 to 218 °C. Moreover, the IC50 in the series with B cells in human blood amounted to 84 nM.
`Cn1nc(-c2cccc(-n3ncc4cc(C(C)(C)C)cc(F)c4c3=O)c2CO)cc(Nc2cc3n(n2)CCN(C2COC2)C3)c1=O` [I-60] returned a melting point of 180 to 185 °C. Moreover, in the series with B cells in human blood, the IC50 came to 4 nM.
Take `Cn1nc(-c2cccc(-n3ncc4cc(C(C)(C)C)cc(F)c4c3=O)c2CO)cc(Nc2ccc(CN3C[C@@H]4C[C@H]3CN4)cn2)c1=O` [I-84, 6-tert-Butyl-2-[3-(5-{5-[(1S,4S)-1-(2,5-diaza-bicyclo[2.2.1]hept-2-yl)methyl]-pyridin-2-ylamino}-1-methyl-6-oxo-1,6-dihydro-pyridazin-3-yl)-2-hydroxymethyl-phenyl]-8-fluoro-2H-phthalazin-1-one]: the melting point was more than 250 °C. Besides, the IC50 in the series on B cells in human blood turned out to be 242 nM.
For `CN1CCN(c2cnc(Nc3cc(-c4cccc(-n5ncc6cc(C(C)(C)C)cc(F)c6c5=O)c4CO)nn(C)c3=O)cn2)CC1` [I-34, 6-tert-Butyl-8-fluoro-2-{2-hydroxymethyl-3-[1-methyl-5-(4-methyl-3,4,5,6-tetrahydro-2H-[1,2′]bipyrazinyl-5′-ylamino)-6-oxo-1,6-dihydro-pyridazin-3-yl]-phenyl}-2H-phthalazin-1-one] the same measures were 235 to 240 °C and 125 nM.
`COCCNCc1ccc(Nc2cc(-c3cccc(-n4ncc5cc(C(C)(C)C)cc(F)c5c4=O)c3CO)nn(C)c2=O)nc1` [I-42, 6-tert-Butyl-8-fluoro-2-[2-hydroxymethyl-3-(5-{5-[(2-methoxy-ethylamino)-methyl]-pyridin-2-ylamino}-1-methyl-6-oxo-1,6-dihydro-pyridazin-3-yl)-phenyl]-2H-phthalazin-1-one] yielded a melting point of 108 to 110 °C. The IC50 in the series with B cells in human blood was determined as 47 nM.
For `CN1CCC(c2ccc(Nc3cc(-c4cccc(-n5ncc6cc(C(C)(C)C)cc(F)c6c5=O)c4CO)nn(C)c3=O)nn2)CC1` [I-40, 6-tert-Butyl-8-fluoro-2-(2-hydroxymethyl-3-{1-methyl-5-[6-(1-methyl-piperidin-4-yl)-pyridazin-3-ylamino]-6-oxo-1,6-dihydro-pyridazin-3-yl}-phenyl)-2H-phthalazin-1-one] the same measures were 260 to 265 °C and 44 nM.
In the same order, the values of `CN(C)CC(C)(C)Oc1ccc(Nc2cc(-c3cccc(-n4ncc5cc(C(C)(C)C)cc(F)c5c4=O)c3CO)nn(C)c2=O)nn1` [I-39, 6-tert-Butyl-2-(3-{5-[6-(2-dimethylamino-1,1-dimethyl-ethoxy)-pyridazin-3-ylamino]-1-methyl-6-oxo-1,6-dihydro-pyridazin-3-yl}-2-hydroxymethyl-phenyl)-8-fluoro-2H-phthalazin-1-one] are 140 to 145 °C and 21 nM.
For the compound `Cn1nc(-c2cccc(-n3ncc4cc(C(C)(C)C)cc(F)c4c3=O)c2CO)cc(Nc2cnc([C@H](O)CO)cn2)c1=O` [I-57, 6-tert-Butyl-2-(3-{5-[5-((S)-1,2-dihydroxy-ethyl)-pyrazin-2-ylamino]-1-methyl-6-oxo-1,6-dihydro-pyridazin-3-yl}-2-hydroxymethyl-phenyl)-8-fluoro-2H-phthalazin-1-one], the melting point was 218 to 224 °C.
The same measure, in the same setting: as for `Cn1nc(-c2cccc(-n3ncc4cc(C(C)(C)C)cc(F)c4c3=O)c2CO)cc(Nc2cnc(C(F)(F)F)cn2)c1=O` [I-11, 6-tert-butyl-8-fluoro-2-{2-hydroxymethyl-3-[1-methyl-6-oxo-5-(5-trifluoromethyl-pyrazin-2-ylamino)-1,6-dihydro-pyridazin-3-yl]-phenyl}-2H-phthalazin-1-one], the figure is 250 to 254 °C.
Take `CN(C)CCOc1cnc(Nc2cc(-c3cccc(-n4ncc5cc(C(C)(C)C)cc(F)c5c4=O)c3CO)nn(C)c2=O)cn1` [I-36, 6-tert-Butyl-2-(3-{5-[5-(2-dimethylamino-ethoxy)-pyrazin-2-ylamino]-1-methyl-6-oxo-1,6-dihydro-pyridazin-3-yl}-2-hydroxymethyl-phenyl)-8-fluoro-2H-phthalazin-1-one]: the melting point is 185 to 190 °C.
Consider `CC(C)N1CCN(c2ccc(Nc3cc(-c4cccc(-n5ncc6cc(C(C)(C)C)cc(F)c6c5=O)c4CO)nn(C)c3=O)nc2)CC1` [I-27, 6-tert-Butyl-8-fluoro-2-(2-hydroxymethyl-3-{5-[5-(4-isopropyl-piperazin-1-yl)-pyridin-2-ylamino]-1-methyl-6-oxo-1,6-dihydro-pyridazin-3-yl}-phenyl)-2H-phthalazin-1-one HCl], for which, in the series with B cells in human blood, the IC50 is 89 nM.
As to `CN1CCC[C@@H]1c1ccc(Nc2cc(-c3cccc(-n4ncc5cc(C(C)(C)C)cc(F)c5c4=O)c3CO)nn(C)c2=O)nc1` [I-19, 6-tert-Butyl-8-fluoro-2-(2-hydroxymethyl-3-{1-methyl-5-[5-((R)-1-methyl-pyrrolidin-2-yl)-pyridin-2-ylamino]-6-oxo-1,6-dihydro-pyridazin-3-yl}-phenyl)-2H-phthalazin-1-one], the IC50 with B cells in human blood was found to be 7 nM.
The same measure, in the same setting: as for `Cn1nc(-c2cccc(-n3ncc4cc(C(C)(C)C)cc(F)c4c3=O)c2CO)cc(Nc2ccc(C(=O)N3CCC(C)(O)CC3)cn2)c1=O` [I-21, 6-tert-butyl-8-fluoro-2-(2-hydroxymethyl-3-{5-[5-(4-hydroxy-4-methyl-piperidine-1-carbonyl)-pyridin-2-ylamino]-1-methyl-6-oxo-1,6-dihydro-pyridazin-3-yl}-phenyl)-2H-phthalazin-1-one], the figure is 109 nM.
The same measure, in the same setting: as for `CN(C)CCNC(=O)c1ccc(Nc2cc(-c3cccc(-n4ncc5cc(C(C)(C)C)cc(F)c5c4=O)c3CO)nn(C)c2=O)nc1` [I-51, 6-(6-(3-(6-tert-butyl-8-fluoro-1-oxophthalazin-2(1H)-yl)-2-(hydroxymethyl)phenyl)-2-methyl-3-oxo-2,3-dihydropyridazin-4-ylamino)-N-(2-(dimethylamino)ethyl)nicotinamide], the figure is 19 nM; as for `Cn1nc(Nc2cc(-c3cccc(-n4ccc5cc(C(C)(C)C#N)cc(F)c5c4=O)c3CO)nn(C)c2=O)cc1CN1CCC1` [I-72, 2-(2-{3-[5-(5-Azetidin-1-ylmethyl-1-methyl-1H-pyrazol-3-ylamino)-1-methyl-6-oxo-1,6-dihydro-pyridazin-3-yl]-2-hydroxymethyl-phenyl}-8-fluoro-1-oxo-1,2-dihydro-isoquinolin-6-yl)-2-methyl-propionitrile], 56 nM.
Same read-out and setting: as for `Cn1nc(-c2cccc(-n3ncc4cc(C(C)(C)C)cc(F)c4c3=O)c2CO)cc(Nc2ccc(C(=O)N3CC(C#N)C3)cn2)c1=O` [I-53, 1-(6-(6-(3-(6-tert-butyl-8-fluoro-1-oxophthalazin-2(1H)-yl)-2-(hydroxymethyl)phenyl)-2-methyl-3-oxo-2,3-dihydropyridazin-4-ylamino)nicotinoyl)azetidine-3-carbonitrile], the figure is 39 nM.

Source of the values: US8481540B2, “Inhibitors of bruton's tyrosine kinase” (Hoffmann-La Roche Inc., priority 2010, dated 2013).
